Values quoted from earlier work as cited in patent US8822870B2, “Dielectric insulation medium” (ABB Technology Ltd., priority 2010, dated 2014).

O=C(C(F)(F)C(F)(F)F)C(F)(C(F)(F)F)C(F)(F)F [C6-ketone, 1,1,1,2,4,4,5,5,5-Nonafluoro-2-(trifluoromethyl)pentan-3-one]
LC50 4 hours: about 100,000 ppm
